Columns and labels:
[1] = Binding affinity to Integrin […] receptor by ELISA assay; design: species or system Homo sapiens
[2] = biological target: Integrin alpha-V/beta-5 (Homo sapiens, UniProt P06756+P18084); experiment: Binding affinity to Integrin alpha-v-beta-5 receptor by ELISA assay; format: protein-complex assay
[3] = Binding affinity to Integrin alpha-2b-beta-3a receptor by ELISA assay; design: species or system Homo sapiens
[4] = biological target: Integrin alpha-V/beta-3 (Homo sapiens, UniProt P05106+P06756); experiment: Binding affinity to Integrin alpha-v-beta-3 receptor by ELISA assay; format: protein-complex assay
Sequence of Integrin alpha-V/beta-3 (P05106 27-788 limits assumed): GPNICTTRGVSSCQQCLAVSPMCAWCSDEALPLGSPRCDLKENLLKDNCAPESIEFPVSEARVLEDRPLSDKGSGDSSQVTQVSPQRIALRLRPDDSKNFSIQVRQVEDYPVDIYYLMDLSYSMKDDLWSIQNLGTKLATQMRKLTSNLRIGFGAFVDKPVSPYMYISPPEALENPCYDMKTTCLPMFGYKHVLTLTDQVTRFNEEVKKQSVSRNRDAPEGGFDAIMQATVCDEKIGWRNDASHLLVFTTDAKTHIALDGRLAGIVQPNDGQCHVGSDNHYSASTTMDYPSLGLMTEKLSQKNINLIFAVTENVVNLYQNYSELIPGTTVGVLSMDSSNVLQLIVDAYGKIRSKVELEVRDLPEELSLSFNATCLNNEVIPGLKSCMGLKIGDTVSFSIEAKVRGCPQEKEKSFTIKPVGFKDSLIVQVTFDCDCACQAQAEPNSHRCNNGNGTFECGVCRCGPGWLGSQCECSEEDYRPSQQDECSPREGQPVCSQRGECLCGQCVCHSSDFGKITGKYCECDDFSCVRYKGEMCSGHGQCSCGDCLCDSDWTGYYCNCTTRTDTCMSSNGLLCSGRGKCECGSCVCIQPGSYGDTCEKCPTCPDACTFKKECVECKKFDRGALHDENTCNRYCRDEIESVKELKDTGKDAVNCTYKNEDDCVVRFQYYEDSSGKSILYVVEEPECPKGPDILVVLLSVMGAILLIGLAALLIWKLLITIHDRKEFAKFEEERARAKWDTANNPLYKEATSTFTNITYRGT
Sequence of Integrin alpha-V/beta-3 (P06756 31-889 limits assumed): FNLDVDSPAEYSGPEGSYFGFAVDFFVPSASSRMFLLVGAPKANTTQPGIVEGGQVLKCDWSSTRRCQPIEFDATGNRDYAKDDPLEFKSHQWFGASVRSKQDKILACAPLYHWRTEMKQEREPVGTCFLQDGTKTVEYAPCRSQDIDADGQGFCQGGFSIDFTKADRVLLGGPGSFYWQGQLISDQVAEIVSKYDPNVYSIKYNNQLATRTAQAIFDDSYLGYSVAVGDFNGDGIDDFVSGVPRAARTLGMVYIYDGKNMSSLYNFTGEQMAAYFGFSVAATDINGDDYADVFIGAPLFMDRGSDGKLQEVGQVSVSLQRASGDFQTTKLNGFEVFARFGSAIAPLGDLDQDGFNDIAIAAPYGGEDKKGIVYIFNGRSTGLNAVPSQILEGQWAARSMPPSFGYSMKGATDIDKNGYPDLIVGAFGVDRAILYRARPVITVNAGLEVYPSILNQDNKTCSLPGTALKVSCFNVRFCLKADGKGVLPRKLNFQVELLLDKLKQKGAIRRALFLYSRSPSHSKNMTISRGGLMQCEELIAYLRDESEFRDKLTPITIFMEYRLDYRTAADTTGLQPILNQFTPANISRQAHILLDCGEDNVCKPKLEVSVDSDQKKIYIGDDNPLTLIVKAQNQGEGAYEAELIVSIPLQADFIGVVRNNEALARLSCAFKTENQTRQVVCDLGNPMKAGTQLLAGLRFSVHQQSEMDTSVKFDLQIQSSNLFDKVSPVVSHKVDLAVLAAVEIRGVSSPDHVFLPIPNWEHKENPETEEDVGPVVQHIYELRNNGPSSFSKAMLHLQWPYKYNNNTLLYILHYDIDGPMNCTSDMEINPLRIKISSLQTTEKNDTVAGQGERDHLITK
Sequence of Integrin alpha-V/beta-3 (P06756 891-1048 limits assumed): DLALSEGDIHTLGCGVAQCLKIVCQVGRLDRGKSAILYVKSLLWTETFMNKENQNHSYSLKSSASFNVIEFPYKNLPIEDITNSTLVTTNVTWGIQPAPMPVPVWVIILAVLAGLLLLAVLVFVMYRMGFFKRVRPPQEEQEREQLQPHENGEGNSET

[5] = Permeability from basolateral to apical side of human Caco-2 cell membrane; format: ADME, cell-based
[6] = Permeability from apical to basolateral side of human Caco-2 cell membrane; format: ADME, cell-based

Sequence of Integrin alpha-V/beta-5 (P06756 31-889 limits assumed): as the sequence (P06756 31-889 limits assumed) above
Sequence of Integrin alpha-V/beta-5 (P06756 891-1048 limits assumed): as the sequence (P06756 891-1048 limits assumed) above
Sequence of Integrin alpha-V/beta-5 (P18084 24-799 limits assumed): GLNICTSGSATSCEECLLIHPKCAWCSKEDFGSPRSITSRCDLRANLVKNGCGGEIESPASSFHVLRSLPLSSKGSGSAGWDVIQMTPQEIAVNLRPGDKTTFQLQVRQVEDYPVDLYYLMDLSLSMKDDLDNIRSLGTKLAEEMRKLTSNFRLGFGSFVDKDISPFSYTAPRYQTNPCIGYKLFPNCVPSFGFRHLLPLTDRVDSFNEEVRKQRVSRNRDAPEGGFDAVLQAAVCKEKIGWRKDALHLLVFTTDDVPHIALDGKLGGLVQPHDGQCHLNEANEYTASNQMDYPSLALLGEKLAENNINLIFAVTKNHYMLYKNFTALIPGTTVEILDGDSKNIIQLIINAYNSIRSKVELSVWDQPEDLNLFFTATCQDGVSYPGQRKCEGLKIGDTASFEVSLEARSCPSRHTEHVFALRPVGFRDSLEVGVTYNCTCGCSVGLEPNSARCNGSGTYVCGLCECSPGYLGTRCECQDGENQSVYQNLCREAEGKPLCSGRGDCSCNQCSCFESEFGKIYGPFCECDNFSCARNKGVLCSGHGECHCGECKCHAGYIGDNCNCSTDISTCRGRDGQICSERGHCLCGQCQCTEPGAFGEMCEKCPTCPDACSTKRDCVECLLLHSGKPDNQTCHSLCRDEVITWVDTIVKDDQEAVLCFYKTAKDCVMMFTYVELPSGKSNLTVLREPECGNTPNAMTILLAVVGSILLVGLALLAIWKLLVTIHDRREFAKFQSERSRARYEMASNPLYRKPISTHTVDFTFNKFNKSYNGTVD

| IC50 [1] | IC50 [2] | IC50 [3] | IC50 [4] | Papp B→A [5] | Papp A→B [6] | Compound |
| --- | --- | --- | --- | --- | --- | --- |
| 15 nM | 0.21 nM | > 1000 nM |  |  |  | O=C(O)CC(c1cccnc1)n1ccc2cc(OCCc3ccc4c(n3)NCCC4)ccc21 (centres undefined) |
| 41 nM | 0.68 nM | > 1000 nM |  |  |  | O=C(O)CC(c1ccccc1)n1ccc2cc(OCCc3ccc4c(n3)NCCC4)ccc21 (centres undefined) |
| 1100 nM | 15 nM | > 1000 nM | 14 nM |  |  | O=C(O)CC(c1ccccc1)n1ccc2cc(CCCc3ccc4c(n3)NCCC4)ccc21 (centres undefined) |

The next lines start with the compound.

| Compound | IC50 [1] | IC50 [2] | IC50 [3] | IC50 [4] | Papp B→A [5] | Papp A→B [6] |
| --- | --- | --- | --- | --- | --- | --- |
| O=C(O)CC(c1ccc2c(c1)OCO2)n1ccc2cc(OCCc3ccc4c(n3)NCCC4)ccc21 (centres undefined) | 24 nM | 0.5 nM | > 1000 nM |  |  |  |
| O=C(O)CC(c1ccccc1)n1ccc2c(CCc3ccc4c(n3)NCCC4)cccc21 (centres undefined) | 107 nM | 1.1 nM | > 1000 nM | 0.96 nM |  |  |
| O=C(O)CC(c1cccnc1)n1ccc2c(CCc3ccc4c(n3)NCCC4)cccc21 (centres undefined) | 250 nM | 0.96 nM | > 1000 nM | 0.5 nM | 2.5 ×10⁻⁶ cm/s | 2.2 ×10⁻⁶ cm/s |
| O=C(O)CC(c1cccnc1)n1ccc2c(NCc3ccc4c(n3)NCCC4)cccc21 (centres undefined) | 9400 nM | 11 nM | > 1000 nM | 4.4 nM |  |  |
| CC(C)[C@H]1C(=O)N[C@@H](CCCNC(=N)N)C(=O)NCC(=O)N[C@@H](CC(=O)O)C(=O)N[C@H](Cc2ccccc2)C(=O)N1C [CILENGITIDE] | 14 nM |  | > 1000 nM |  |  |  |

— ChEMBL document CHEMBL1144584, “Identification of novel short chain 4-substituted indoles as potent alphavbeta3 antagonist using structure-based drug design” (Eur J Med Chem, 2007)
